The supplement of paper PMC7600603

Legend:
DLD1 NRF2-WT [1] = assay: TC50 cytotoxicity; higher = less toxic; details: 72 h; CellTox Green cytotoxicity
Method in brief: (§1)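 TC50 and drug sensitivity score, a normalised area under the curve, were derived by logistic dose-response fits of cytotoxicity. The cells were an isogenic DLD1 colorectal cancer pair, NRF2 wild-type or CRISPR-edited, kept in DMEM with 10% FBS. Compounds were tested in 384-well plates at 5 concentrations across a 10,000-fold range for 72 h. Readings with CellTox Green on a Pherastar FS reader were normalised to vehicle wells and 100-μM positive-control wells.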

DLD1 NRF2-GOF [2] = assay: TC50 cytotoxicity; higher = less toxic; details: 72 h; CellTox Green cytotoxicity
Method in brief: as §1

DLD1 NRF2-WT [3] = details: 72 h; CellTiter-Glo viability
Method in brief: (§2)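 Library compounds were tested in 384-well plates at 5 concentrations covering a 10,000-fold span against isogenic DLD1 colorectal cancer cells, NRF2 wild-type or CRISPR gain-of-function, grown in DMEM with 10% FBS. Viability was measured at 72 h with CellTiter-Glo on a Pherastar FS reader, relative to vehicle wells and 100-μM positive-control wells. EC50 and drug sensitivity score (normalised area under the curve) were derived from logistic dose-response curves fitted with four parameters.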

DLD1 NRF2-GOF [4] = details: 72 h; CellTiter-Glo viability
Method in brief: as §2

DLD1 NRF2-WT [5] = assay: drug sensitivity score (DSS) viability (DSS score); higher = more sensitive; extreme values may be limits of the assay; details: 72 h; CellTiter-Glo viability
Method in brief: as §2

DLD1 NRF2-GOF [6] = assay: as above; details: 72 h; CellTiter-Glo viability
Method in brief: as §2

DLD1 NRF2-WT [7] = assay: drug sensitivity score (DSS) cytotoxicity (DSS score); higher = more toxic; extreme values may be limits of the assay; details: 72 h; CellTox Green cytotoxicity
Method in brief: as §1

DLD1 NRF2-GOF [8] = assay: as above; details: 72 h; CellTox Green cytotoxicity
Method in brief: as §1

EC50 viability (DLD1 NRF2-WT [3])	EC50 viability (DLD1 NRF2-GOF [4])	SMILES	TC50 cytotoxicity (DLD1 NRF2-WT [1])	TC50 cytotoxicity (DLD1 NRF2-GOF [2])	drug sensitivity score (DLD1 NRF2-WT [5])	drug sensitivity score (DLD1 NRF2-GOF [6])	drug sensitivity score (DLD1 NRF2-WT [7])	drug sensitivity score (DLD1 NRF2-GOF [8])
> 10 µM	> 10 µM	CN1CCN(c2nc(C3=C(c4c[nH]c5ccccc45)C(=O)NC3=O)c3ccccc3n2)CC1 [Sotrastaurin]	> 10 µM	> 10 µM	1.2	0	0	0
0.353 µM	0.143 µM	C=CCn1c(=O)c2cnc(Nc3ccc(N4CCN(C)CC4)cc3)nc2n1-c1cccc(C(C)(C)O)n1 [AZD1775]	1 µM	0.171 µM	14.5	16.9	5.7	6.1
0.11 µM	0.125 µM	CC(C)C[C@H](NC(=O)CNC(=O)c1cc(Cl)ccc1Cl)B(O)O [Ixazomib]	0.148 µM	0.246 µM	11	10.3	9.6	6.8
0.167 µM	0.425 µM	COc1cc2c(Nc3ccc(Cl)c(Cl)c3F)ncnc2cc1OC[C@@H]1C[C@@H]2CN(C)C[C@@H]2C1 [Tesevatinib]	> 1 µM	> 1 µM	5.1	1.2	0.1	0
0.933 µM	0.844 µM	C=CC[C@@H]1/C=C(\C)C[C@H](C)C[C@H](OC)[C@H]2O[C@@](O)(C(=O)C(=O)N3CCCC[C@H]3C(=O)O[C@H](/C(C)=C/[C@@H]3CC[C@@H](O)[C@H](OC)C3)[C@H](C)[C@@H](O)CC1=O)[C@H](C)C[C@@H]2OC [Tacrolimus]	> 10 µM	> 10 µM	4.5	5	0	0
> 10 µM	> 10 µM	Cc1ccc(=O)n(-c2ccccc2)c1 [Pirfenidone]	> 10 µM	> 10 µM	0	0	0	0
> 10 µM	0.0174 µM	COC(=O)c1ccc([C@H]2c3[nH]c4ccccc4c3C[C@H](C(=O)OC)N2C(=O)CCl)cc1 [RSL3]	> 10 µM	> 10 µM	6.6	9	0	0
1.99 µM	2.3 µM	CCn1c(-c2nonc2N)nc2cnc(Oc3cccc(NC(=O)c4ccc(OCCN5CCOCC5)cc4)c3)cc21	> 10 µM	1.55 µM	5.4	6.3	1.2	6.1
0.371 µM	0.675 µM	CNC(=O)c1cccc(-c2ccc3c(N4CCOC[C@@H]4C)nc(N4CCOC[C@@H]4C)nc3n2)c1 [Vistusertib]	> 10 µM	> 10 µM	11.9	9.9	0	0
> 5 µM	> 5 µM	c1cn2cc(-c3ccc4cn[nH]c4c3)nc(Nc3ccc(N4CCOCC4)cc3)c2n1 [Entospletinib]	> 5 µM	> 5 µM	0	0	0	0
0.284 µM	0.11 µM	CC#CC(=O)N1CCC[C@H]1c1nc(-c2ccc(C(=O)Nc3ccccn3)cc2)c2c(N)nccn12 [Acalabrutinib]	> 1 µM	> 1 µM	1.7	4	0	0
0.0751 µM	1.43 µM	Nc1nc(N)c2nc(-c3cccc(O)c3)c(-c3cccc(O)c3)nc2n1 [TG100-115]	> 10 µM	> 10 µM	7.1	3.5	0	0
3.3 µM	3.71 µM	CNC(=O)c1cc(Oc2ccc(NC(=O)Nc3ccc(Cl)c(C(F)(F)F)c3)c(F)c2)ccn1 [Regorafenib]	> 10 µM	> 10 µM	3.8	2.4	0	0
2.09 µM	0.79 µM	O=C(Nc1nc2cccc(-c3ccc(CN4CCS(=O)(=O)CC4)cc3)n2n1)C1CC1 [Filgotinib]	> 10 µM	> 10 µM	6.7	11.7	0	0.8
3.22 µM	2.58 µM	CCCCCCCCc1ccc(CCC(N)(CO)CO)cc1 [Fingolimod]	2.42 µM	2.73 µM	5.5	6.7	5.6	6.4
2.67 µM	3.03 µM	C[C@@H]1COCCN1c1cc(C2([S@](C)(=N)=O)CC2)nc(-c2cc[nH]c3nccc2-3)n1 [AZD6738]	> 25 µM	> 25 µM	7.8	4.5	0	0
1.21 µM	1.51 µM	CCN(CC)CCCC(C)Nc1c2ccc(Cl)cc2nc2ccc(OC)cc12 (centres undefined) [Mepacrine]	5.03 µM	7.07 µM	19.4	18.2	11.7	9.9

EC50 viability (DLD1 NRF2-WT [3])	EC50 viability (DLD1 NRF2-GOF [4])	SMILES	TC50 cytotoxicity (DLD1 NRF2-WT [1])	TC50 cytotoxicity (DLD1 NRF2-GOF [2])	drug sensitivity score (DLD1 NRF2-WT [5])	drug sensitivity score (DLD1 NRF2-GOF [6])	drug sensitivity score (DLD1 NRF2-WT [7])	drug sensitivity score (DLD1 NRF2-GOF [8])
0.0064 µM	0.0046 µM	CON(C)C(=O)N1N=C(c2cc(F)ccc2F)S[C@@]1(CCCN)c1ccccc1 [Filanesib]	> 1 µM	> 1 µM	21.5	18.6	5.3	6.2
2.28 µM	0.0429 µM	CC(C)NC(=O)COc1cccc(-c2nc(Nc3ccc4[nH]ncc4c3)c3ccccc3n2)c1 [KD025]	> 5 µM	> 5 µM	1.8	5.4	0	0
0.164 µM	0.242 µM	O=C1NC(=O)[C@@H](c2cn3c4c(cccc24)CCC3)[C@@H]1c1c[nH]c2ccccc12 [Tivantinib]	> 1 µM	> 1 µM	6.7	5	1.4	0.9
2.8 µM	3.25 µM	N#CCNC(=O)c1ccc(-c2ccnc(Nc3ccc(N4CCOCC4)cc3)n2)cc1 [Momelotinib]	> 10 µM	> 10 µM	4.1	2.8	0.2	0.1
> 10 µM	> 10 µM	COc1cccc2c1c(O)c(C(=O)N(C)c1ccc(C(F)(F)F)cc1)c(=O)n2C [Tasquinimod]	> 10 µM	> 10 µM	1.8	1.2	0	0
0.0202 µM	0.103 µM	COc1cc(C)c(/C=C/C(C)=C/C=C/C(C)=C/C(=O)O)c(C)c1C [Acitretin]	> 10 µM	> 10 µM	15.5	10.3	0	0
2.28 µM	2.09 µM	Cc1cc(Nc2cc(CN3CCOCC3)c3nc(C)c(Cc4ccc(Cl)cc4F)n3n2)n[nH]1 [Gandotinib]	1.89 µM	1.62 µM	5	6.2	2.8	6.1
1.77 µM	3.12 µM	Nc1ncnc2c1c(-c1cccc(OCc3ccccc3)c1)cn2[C@H]1C[C@@H](CN2CCC2)C1 [NVP-AEW541]	> 10 µM	> 10 µM	6.8	5	0.1	1.5
0.0473 µM	0.0245 µM	C[C@H]1O[C@@H](O[C@H]2[C@@H](O)C[C@H](O[C@H]3[C@@H](O)C[C@H](O[C@H]4CC[C@@]5(C)[C@H](CC[C@@H]6[C@@H]5C[C@@H](O)[C@]5(C)[C@@H](C7=CC(=O)OC7)CC[C@]65O)C4)O[C@@H]3C)O[C@@H]2C)C[C@H](O)[C@@H]1O [Digoxin]	0.327 µM	0.217 µM	15.8	18.8	4.3	4.6
0.546 µM	0.728 µM	Cc1cc(Nc2ncc(Cl)c(Nc3ccccc3S(=O)(=O)C(C)C)n2)c(OC(C)C)cc1C1CCNCC1 [Ceritinib]	> 2.5 µM	> 2.5 µM	5.2	4.2	0	0
0.148 µM	0.145 µM	CN(C)C/C=C/C(=O)Nc1cc2c(Nc3ccc(F)c(Cl)c3)ncnc2cc1O[C@H]1CCOC1 [Afatinib]	> 1 µM	> 1 µM	3.3	2.9	0	0
0.547 µM	0.479 µM	CCCCC(=O)OCC(=O)[C@]1(O)Cc2c(O)c3c(c(O)c2[C@@H](O[C@H]2C[C@H](NC(=O)C(F)(F)F)[C@H](O)[C@H](C)O2)C1)C(=O)c1c(OC)cccc1C3=O [Valrubicin]	> 5 µM	> 5 µM	6.8	8.1	0	0
0.531 µM	0.202 µM	Cc1ccc(NS(=O)(=O)c2cccc(C#N)c2)c2[nH]cc(C#N)c12 [E7820]	> 50 µM	> 50 µM	15.3	22.9	0	0
> 10 µM	> 10 µM	COC(=O)c1ccc2c(c1)NC(=O)/C2=C(\Nc1ccc(N(C)C(=O)CN2CCN(C)CC2)cc1)c1ccccc1 [Nintedanib]	> 10 µM	> 10 µM	0.5	0	0.5	0
0.399 µM	0.0551 µM	COc1cc(N2CCC(N3CCN(C)CC3)CC2)ccc1Nc1ncc(Cl)c(Nc2ccccc2P(C)(C)=O)n1 [Brigatinib]	> 1 µM	> 1 µM	1.1	3.4	0	0
0.46 µM	0.169 µM	CN(C)C(=O)c1cc2cnc(Nc3ccc(N4CCNCC4)cn3)nc2n1C1CCCC1 [Ribociclib]	> 10 µM	> 10 µM	8.2	6.8	0	0
